Test results as given in patent US10093713B2, “GIP-GLP-1 dual agonist compounds and methods” (priority 2013, dated 2018).
Where two headings read alike, the source gives them in different places. *1 amine or outer side, *2 acyl side, *3 side chain or, on linkers, in order; H or OH if unused. Where a SMILES comes first, the peptide text is derived from it. Side-chain parts run from the residue outwards. [ ]: non-standard residue; d: D form. The star is where a group is joined. C20 diacid = O=C(O)CCCCCCCCCCCCCCCCCCC(=O)*; C18 diacid = O=C(O)CCCCCCCCCCCCCCCCC(=O)*; γGlu = O=C(O)[C@H](CCC(=O)[*:2])N[*:1]; AEEA = NCCOCCOCC(=O)O; Aib = CC(C)(N)C(=O)O

How the values were obtained:
[1] = target: T1, human GIP R (Homo sapiens, UniProt P48546); assay: Human GIP receptor (GIP R) activity assay, cAMP induction (AlphaScreen) in HEK293 cells; type: cell-based; conditions: read-out: hGIP-R cAMP EC50 average value
T1 construct: expressed in transfected cells
T1 sequence (P48546 22-466): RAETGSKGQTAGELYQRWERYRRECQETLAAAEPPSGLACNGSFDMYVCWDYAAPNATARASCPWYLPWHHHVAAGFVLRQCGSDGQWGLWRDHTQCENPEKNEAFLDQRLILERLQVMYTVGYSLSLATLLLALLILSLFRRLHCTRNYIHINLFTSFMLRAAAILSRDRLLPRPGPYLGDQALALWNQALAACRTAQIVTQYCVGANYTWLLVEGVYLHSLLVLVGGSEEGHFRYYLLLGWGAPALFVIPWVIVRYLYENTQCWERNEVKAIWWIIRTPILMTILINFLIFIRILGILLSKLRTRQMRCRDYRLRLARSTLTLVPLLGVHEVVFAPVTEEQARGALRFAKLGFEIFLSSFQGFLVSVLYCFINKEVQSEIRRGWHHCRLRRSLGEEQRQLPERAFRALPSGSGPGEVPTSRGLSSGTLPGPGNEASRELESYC
Method in brief: (§1)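 Stable HEK293 clones expressing human GIP R or GLP-1 R, seeded 1 day before; cells washed in Tyrode's buffer (10 mM HEPES, pH 7.4), stimulated, then lysed. cAMP measured by AlphaScreen bead competition (1 h, room temperature, dark). EC50 = concentration giving half-maximal cAMP elevation, from curves of absolute cAMP (nM) vs log concentration.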

[2] = target: T2, human GLP-1 R (Homo sapiens, UniProt P43220); assay: Human GLP-1 receptor (GLP-1 R) activity assay, cAMP induction (AlphaScreen) in HEK293 cells; type: cell-based
T2 construct: expressed in transfected cells
Method in brief: as §1

[3] = Pharmacokinetics of selected compounds in mice; type: in vivo, C57BL/6J mice; conditions: male, C57BL/6J, mouse, plasma; for bioavailability: subcutaneous, AUCinf (s.c.)/AUCinf (i.v.)x100, values marked * capped to 100%
Description: Pharmacokinetics of Selected Compounds in Mice
C57BL/6J mice (males with a body weight of approximately 25 g) were given either a single subcutaneous (s.c.) bolus or a single intravenous (i.v.) bolus of each peptide to be tested.
Following s.c. administration of the selected compounds (50, 100 or 200 nmol/kg), blood samples were drawn at 8 (eight) timepoints up to 72 hours post-dose. Following i.v. administration of the selected compounds (50, 100 or 200 nmol/kg), blood samples were drawn at 8 (eight) timepoints up to 48 hours post-dose. Blood samples were drawn by sublingual bleeding. The dosing vehicle was a phosphate buffer containing mannitol (pH 7.5).
At each sampling time point, samples from two mice were drawn, i.e. 16 mice were included for each compound and each administration route. The mice were euthanized immediately after blood sampling by cervical dislocation. Plasma samples were analyzed after solid phase extraction (SPE) or protein precipitation followed by liquid chromatography mass spectrometry (LC-MS/MS). Mean plasma concentrations were used for calculation of the pharmacokinetic parameters using the non-compartmental approach in Phoenix WinNonlin 6.3. Plasma terminal elimination half-life (T½) was determined as […] where λz is the magnitude of the slope of the log linear regression of the log concentration versus time profile during the terminal phase. Bioavailability was determined as AUCinf (s.c.)/AUCinf (i.v.)×100, where AUCinf is the area under the plasma concentration−time curve extrapolated to infinity (AUCinf=AUClast+Clast/λz, where Clast is the last observed plasma concentration). Tmax is the post-dose time where the maximal plasma concentration was observed.

[4] = Table 2, HEK293 cells expressing human GIP R
[5] = Table 2a, secondary assay study
[6] = Table 3, most comprehensive data
[7] = Table 2, HEK293 cells expressing human GLP-1 R, read-out: hGLP1-R cAMP EC50 average value
[8] = Table 2a, secondary assay study, read-out: hGLP1-R cAMP EC50 average value
[9] = Table 3, most comprehensive data, read-out: hGLP-1-R cAMP EC50 average value
[10] = iv, single i.v. bolus, read-out: T½ terminal elimination half-life, i.v. (converted)
[11] = sc, single s.c. bolus, read-out: T½ terminal elimination half-life, s.c. (converted)

T2 sequence (P43220 24-463): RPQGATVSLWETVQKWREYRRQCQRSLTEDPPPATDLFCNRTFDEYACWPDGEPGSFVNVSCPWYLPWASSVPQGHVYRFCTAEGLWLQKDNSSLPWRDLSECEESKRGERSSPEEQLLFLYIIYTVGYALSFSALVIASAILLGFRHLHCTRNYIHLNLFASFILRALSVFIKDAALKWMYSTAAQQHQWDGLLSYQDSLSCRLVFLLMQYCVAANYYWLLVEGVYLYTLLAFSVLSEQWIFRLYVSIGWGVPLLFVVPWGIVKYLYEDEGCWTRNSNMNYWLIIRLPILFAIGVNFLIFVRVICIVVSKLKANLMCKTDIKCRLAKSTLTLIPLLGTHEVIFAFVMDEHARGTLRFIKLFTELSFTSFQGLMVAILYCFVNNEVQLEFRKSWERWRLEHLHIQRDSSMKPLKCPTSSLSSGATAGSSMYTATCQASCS

Structure (SMILES) | EC50 [1, 4] | EC50 [1, 5] | EC50 [1, 6] | EC50 [2, 7] | EC50 [2, 8] | EC50 [2, 9] | half-life [3, 10] | bioavailability [3] | Tmax ([3]; sc, single s.c. bolus) | half-life [3, 11]
CC[C@H](C)[C@H](NC(=O)[C@H](CO)NC(=O)[C@H](Cc1ccc(O)cc1)NC(=O)[C@H](CC(=O)O)NC(=O)[C@H](CO)NC(=O)[C@@H](NC(=O)[C@H](Cc1ccccc1)NC(=O)[C@@H](NC(=O)CNC(=O)[C@H](CCC(=O)O)NC(=O)C(C)(C)NC(=O)[C@@H](N)Cc1ccc(O)cc1)[C@@H](C)O)[C@@H](C)O)C(=O)N[C@@H](Cc1ccc(O)cc1)C(=O)N[C@@H](CC(C)C)C(=O)N[C@@H](CC(=O)O)C(=O)N[C@@H](CCCCN)C(=O)N[C@@H](CCCCNC(=O)COCCOCCNC(=O)COCCOCCNC(=O)CC[C@H](NC(=O)CCCCCCCCCCCCCCCCC(=O)O)C(=O)O)C(=O)N[C@@H](C)C(=O)N[C@@H](CCC(N)=O)C(=O)N[C@@H](CCCNC(=N)N)C(=O)N[C@@H](C)C(=O)N[C@@H](Cc1ccccc1)C(=O)N[C@H](C(=O)N[C@@H](CCC(=O)O)C(=O)N[C@@H](Cc1c[nH]c2ccccc12)C(=O)N[C@@H](CC(C)C)C(=O)N[C@@H](CC(C)C)C(=O)N[C@@H](C)C(=O)N[C@@H](CCC(N)=O)C(=O)NCC(=O)N1CCC[C@H]1C(=O)N[C@@H](CO)C(=O)N[C@@H](CO)C(=O)NCC(=O)N[C@@H](C)C(=O)N1CCC[C@H]1C(=O)N1CCC[C@H]1C(=O)N1CCC[C@H]1C(=O)N[C@@H](CO)C(N)=O)C(C)C [Compound 1] (H-Y[Aib]EGTFTSDYSIYLDKK([AEEA-AEEA-γGlu-C18 diacid])AQRAFVEWLLAQGPSSGAPPPS-NH2) | 0.0055 nM | 0.006 nM | 0.006 nM | 0.012 nM | 0.015 nM | 0.015 nM | 10.8 h | 90% | 6 h | 9.1 h
CC[C@H](C)[C@H](NC(=O)[C@H](CO)NC(=O)[C@H](Cc1ccc(O)cc1)NC(=O)[C@H](CC(=O)O)NC(=O)[C@H](CO)NC(=O)[C@@H](NC(=O)[C@H](Cc1ccccc1)NC(=O)[C@@H](NC(=O)CNC(=O)[C@H](CCC(=O)O)NC(=O)C(C)(C)NC(=O)[C@@H](N)Cc1ccc(O)cc1)[C@@H](C)O)[C@@H](C)O)C(=O)N[C@@H](Cc1ccc(O)cc1)C(=O)N[C@@H](CC(C)C)C(=O)N[C@@H](CC(=O)O)C(=O)N[C@@H](CCCCN)C(=O)N[C@@H](CCCCNC(=O)COCCOCCNC(=O)COCCOCCNC(=O)CC[C@H](NC(=O)CCCCCCCCCCCCCCCCCCC(=O)O)C(=O)O)C(=O)N[C@@H](C)C(=O)N[C@@H](CCC(N)=O)C(=O)N[C@@H](CCCNC(=N)N)C(=O)N[C@@H](C)C(=O)N[C@@H](Cc1ccccc1)C(=O)N[C@H](C(=O)N[C@@H](CCC(=O)O)C(=O)N[C@@H](Cc1c[nH]c2ccccc12)C(=O)N[C@@H](CC(C)C)C(=O)N[C@@H](CC(C)C)C(=O)N[C@@H](C)C(=O)N[C@@H](CCC(N)=O)C(=O)NCC(=O)N1CCC[C@H]1C(=O)N[C@@H](CO)C(=O)N[C@@H](CO)C(=O)NCC(=O)N[C@@H](C)C(=O)N1CCC[C@H]1C(=O)N1CCC[C@H]1C(=O)N1CCC[C@H]1C(=O)N[C@@H](CO)C(N)=O)C(C)C [Compound 2] (H-Y[Aib]EGTFTSDYSIYLDKK([AEEA-AEEA-γGlu-C20 diacid])AQRAFVEWLLAQGPSSGAPPPS-NH2) | 0.0049 nM | 0.008 nM | 0.008 nM | 0.0083 nM | 0.011 nM | 0.011 nM | 16.6 h | 83% | 6 h | 16.5 h
CC[C@H](C)[C@H](NC(=O)[C@H](CO)NC(=O)[C@H](Cc1ccc(O)cc1)NC(=O)[C@H](CC(=O)O)NC(=O)[C@H](CO)NC(=O)[C@@H](NC(=O)[C@H](Cc1ccccc1)NC(=O)[C@@H](NC(=O)CNC(=O)[C@H](CCC(=O)O)NC(=O)C(C)(C)NC(=O)[C@@H](N)Cc1ccc(O)cc1)[C@@H](C)O)[C@@H](C)O)C(=O)N[C@@H](Cc1ccc(O)cc1)C(=O)N[C@@H](CC(C)C)C(=O)N[C@@H](CC(=O)O)C(=O)N[C@@H](CCCCN)C(=O)N[C@@H](CCCCNC(=O)CC[C@H](NC(=O)CCCCCCCCCCCCCCCCC(=O)O)C(=O)O)C(=O)N[C@@H](C)C(=O)N[C@@H](CCC(N)=O)C(=O)N[C@@H](CCCNC(=N)N)C(=O)N[C@@H](C)C(=O)N[C@@H](Cc1ccccc1)C(=O)N[C@H](C(=O)N[C@@H](CCC(=O)O)C(=O)N[C@@H](Cc1c[nH]c2ccccc12)C(=O)N[C@@H](CC(C)C)C(=O)N[C@@H](CC(C)C)C(=O)N[C@@H](C)C(=O)N[C@@H](CCC(N)=O)C(=O)NCC(=O)N1CCC[C@H]1C(=O)N[C@@H](CO)C(=O)N[C@@H](CO)C(=O)NCC(=O)N[C@@H](C)C(=O)N1CCC[C@H]1C(=O)N1CCC[C@H]1C(=O)N1CCC[C@H]1C(=O)N[C@@H](CO)C(N)=O)C(C)C [Compound 3] (H-Y[Aib]EGTFTSDYSIYLDKK([γGlu-C18 diacid])AQRAFVEWLLAQGPSSGAPPPS-NH2) | 0.0086 nM | 0.009 nM | 0.009 nM | 0.011 nM | 0.011 nM |  | 9.1 h | 89% | 8 h | 
CC[C@H](C)[C@H](NC(=O)[C@H](CO)NC(=O)[C@H](Cc1ccc(O)cc1)NC(=O)[C@H](CC(=O)O)NC(=O)[C@H](CO)NC(=O)[C@@H](NC(=O)[C@H](Cc1ccccc1)NC(=O)[C@@H](NC(=O)CNC(=O)[C@H](CCC(=O)O)NC(=O)C(C)(C)NC(=O)[C@@H](N)Cc1ccc(O)cc1)[C@@H](C)O)[C@@H](C)O)C(=O)N[C@@H](C)C(=O)N[C@@H](CC(C)C)C(=O)N[C@@H](CC(=O)O)C(=O)N[C@@H](CCCCN)C(=O)N[C@@H](CCCCNC(=O)COCCOCCNC(=O)COCCOCCNC(=O)CC[C@H](NC(=O)CCCCCCCCCCCCCCCCCCC(=O)O)C(=O)O)C(=O)N[C@@H](C)C(=O)N[C@@H](CCC(N)=O)C(=O)N[C@@H](CCCNC(=N)N)C(=O)N[C@@H](C)C(=O)N[C@@H](Cc1ccccc1)C(=O)N[C@H](C(=O)N[C@@H](CCC(=O)O)C(=O)N[C@@H](Cc1c[nH]c2ccccc12)C(=O)N[C@@H](CC(C)C)C(=O)N[C@@H](CC(C)C)C(=O)N[C@@H](C)C(=O)N[C@@H](CCC(=O)O)C(=O)NCC(=O)N1CCC[C@H]1C(=O)N[C@@H](CO)C(=O)N[C@@H](CO)C(=O)NCC(=O)N[C@@H](C)C(=O)N1CCC[C@H]1C(=O)N1CCC[C@H]1C(=O)N1CCC[C@H]1C(=O)N[C@@H](CO)C(N)=O)C(C)C [Compound 55] (H-Y[Aib]EGTFTSDYSIALDKK([AEEA-AEEA-γGlu-C20 diacid])AQRAFVEWLLAEGPSSGAPPPS-NH2) |  |  | 0.016 nM |  |  | 0.013 nM |  |  |  | 
CC[C@H](C)[C@H](NC(=O)[C@H](CO)NC(=O)[C@H](Cc1ccc(O)cc1)NC(=O)[C@H](CC(=O)O)NC(=O)[C@H](CO)NC(=O)[C@@H](NC(=O)[C@H](Cc1ccccc1)NC(=O)[C@@H](NC(=O)CNC(=O)[C@H](CCC(=O)O)NC(=O)C(C)(C)NC(=O)[C@@H](N)Cc1ccc(O)cc1)[C@@H](C)O)[C@@H](C)O)C(=O)N[C@@H](C)C(=O)N[C@@H](CC(C)C)C(=O)N[C@@H](CC(=O)O)C(=O)N[C@@H](CCCCN)C(=O)N[C@@H](CCCCNC(=O)COCCOCCNC(=O)COCCOCCNC(=O)CC[C@H](NC(=O)CCCCCCCCCCCCCCCCCCC(=O)O)C(=O)O)C(=O)N[C@@H](C)C(=O)N[C@@H](CCC(N)=O)C(=O)N[C@@H](CCCNC(=N)N)C(=O)N[C@@H](C)C(=O)N[C@@H](Cc1ccccc1)C(=O)N[C@H](C(=O)N[C@@H](CCC(=O)O)C(=O)N[C@@H](Cc1c[nH]c2ccccc12)C(=O)N[C@@H](CC(C)C)C(=O)N[C@@H](CC(C)C)C(=O)N[C@@H](C)C(=O)N[C@@H](CCC(=O)O)C(=O)N1CCC[C@H]1C(=O)N[C@@H](CO)C(=O)N[C@@H](CO)C(=O)NCC(=O)N[C@@H](C)C(=O)N1CCC[C@H]1C(=O)N1CCC[C@H]1C(=O)N1CCC[C@H]1C(=O)N[C@@H](CO)C(N)=O)C(C)C [Compound 56] (H-Y[Aib]EGTFTSDYSIALDKK([AEEA-AEEA-γGlu-C20 diacid])AQRAFVEWLLAEPSSGAPPPS-NH2) |  |  | 0.025 nM |  |  | 0.033 nM |  |  |  | 
